ChEMBL document CHEMBL1201862, “PubChem BioAssay data set” (2004)
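Exposure lasted 48 hours, with cells grown in 96-well plates and compounds tested at five concentrations. GI50: concentration for 50% inhibition of growth.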 Activity calls are given as the source filed them. Cut-off read from the data, not from the text of the source: active = GI50 up to about 1.1 µM and inactive = higher.

Legend:
Test in all cases: NCI-60 cell line screen, 48 h
786-0 = system: 786-0
SK-MEL-5 = system: SK-MEL-5
HCT-116 = system: HCT-116
Hs-578T = system: Hs-578T
IGROV-1 = system: IGROV-1
SK-OV-3 = system: SK-OV-3
DU-145 = system: DU-145
SK-MEL-2 = system: SK-MEL-2
NCI-H460 = system: NCI-H460
U-251 = system: U-251
TK-10 = system: TK-10
MDA-MB-231 = system: MDA-MB-231
EKVX = system: EKVX
COLO 205 = system: COLO 205
RPMI-8226 = system: RPMI-8226
SF-295 = system: SF-295
MDA-MB-435 = system: MDA-MB-435
HCC 2998 = system: HCC 2998
SNB-75 = system: SNB-75
HOP-92 = system: HOP-92

| SMILES | GI50 (786-0) | GI50 (SK-MEL-5) | GI50 (HCT-116) | GI50 (Hs-578T) | GI50 (IGROV-1) | GI50 (SK-OV-3) | GI50 (DU-145) | GI50 (SK-MEL-2) | GI50 (NCI-H460) | GI50 (U-251) | GI50 (TK-10) | GI50 (MDA-MB-231) | GI50 (EKVX) | GI50 (COLO 205) | GI50 (RPMI-8226) | GI50 (SF-295) | GI50 (MDA-MB-435) | GI50 (HCC 2998) | GI50 (SNB-75) | GI50 (HOP-92) |
| --- | --- | --- | --- | --- | --- | --- | --- | --- | --- | --- | --- | --- | --- | --- | --- | --- | --- | --- | --- | --- |
| c1ccc2nc3c(nc2c1)sc1ccccc13 | 23 µM (inactive) | 30.9 µM (inactive) | 26.7 µM (inactive) | 30.5 µM (inactive) | 15.6 µM (inactive) | 13.2 µM (inactive) | 50 µM (inactive) | 67.5 µM (inactive) | 13.6 µM (inactive) | 16 µM (inactive) | 19.3 µM (inactive) | 30.5 µM (inactive) | 16.1 µM (inactive) | 58.3 µM (inactive) | > 100 µM (inactive) | 30.7 µM (inactive) | 94.4 µM (inactive) | 32.9 µM (inactive) | 22.2 µM (inactive) | – |
| c1ccc([P+](c2ccccc2)(c2ccccc2)c2ccc(-c3ccc([P+](c4ccccc4)(c4ccccc4)c4ccccc4)cc3)cc2)cc1 | 25.9 µM (inactive) | 1.56 µM (inactive) | 18.2 µM (inactive) | > 100 µM (inactive) | 3.67 µM (inactive) | 43.2 µM (inactive) | 63.8 µM (inactive) | 24.3 µM (inactive) | 27 µM (inactive) | 7.94 µM (inactive) | 34.8 µM (inactive) | 32.8 µM (inactive) | 37 µM (inactive) | 16.4 µM (inactive) | > 100 µM (inactive) | 30.2 µM (inactive) | 26.7 µM (inactive) | 47.4 µM (inactive) | – | – |
| O=C(C1OC1c1ccc(Br)cc1O)C12CC3CC(CC(C3)C1)C2 (stereo unspecified) | 17.6 µM (inactive) | 19.5 µM (inactive) | 14.9 µM (inactive) | 15.7 µM (inactive) | 32 µM (inactive) | – | 42 µM (inactive) | – | 27.6 µM (inactive) | 15.7 µM (inactive) | 33.9 µM (inactive) | 18.1 µM (inactive) | > 100 µM (inactive) | – | 17.8 µM (inactive) | 17.9 µM (inactive) | 13.8 µM (inactive) | 21.4 µM (inactive) | 14.5 µM (inactive) | 17.7 µM (inactive) |
| Cc1ccc(N(C)S(=O)(=O)c2ccc([N+](=O)[O-])cc2)cc1 | > 100 µM (inactive) | > 10 µM (inactive) | > 100 µM (inactive) | > 100 µM (inactive) | > 100 µM (inactive) | > 100 µM (inactive) | > 100 µM (inactive) | > 100 µM (inactive) | 74 µM (inactive) | > 100 µM (inactive) | > 100 µM (inactive) | 85.3 µM (inactive) | > 100 µM (inactive) | > 100 µM (inactive) | 59 µM (inactive) | 92.3 µM (inactive) | 81.8 µM (inactive) | 93.5 µM (inactive) | > 100 µM (inactive) | – |
| C=CCN(c1cc(OC)c2[nH]cc(C)c2c1[N+](=O)[O-])S(C)(=O)=O | > 100 µM (inactive) | > 100 µM (inactive) | > 100 µM (inactive) | > 100 µM (inactive) | > 100 µM (inactive) | > 100 µM (inactive) | > 100 µM (inactive) | > 100 µM (inactive) | > 100 µM (inactive) | > 100 µM (inactive) | > 100 µM (inactive) | > 100 µM (inactive) | > 100 µM (inactive) | > 100 µM (inactive) | > 100 µM (inactive) | > 100 µM (inactive) | > 100 µM (inactive) | > 100 µM (inactive) | > 100 µM (inactive) | – |
| Cc1nc2ccccc2c(=O)n1NC(=O)c1ccc(CS)cc1 | 11.5 µM (inactive) | 3.92 µM (inactive) | 4.4 µM (inactive) | 16.6 µM (inactive) | 8.59 µM (inactive) | 17.8 µM (inactive) | 28.1 µM (inactive) | – | 19 µM (inactive) | 3.94 µM (inactive) | > 10 µM (inactive) | 13 µM (inactive) | 4.76 µM (inactive) | 15.2 µM (inactive) | 11.1 µM (inactive) | 25.8 µM (inactive) | 12.9 µM (inactive) | 18.5 µM (inactive) | 14.9 µM (inactive) | 7.85 µM (inactive) |
| NC(=O)c1nnn(-c2ccccc2)c1O | > 100 µM (inactive) | > 100 µM (inactive) | > 100 µM (inactive) | > 100 µM (inactive) | > 100 µM (inactive) | > 100 µM (inactive) | > 100 µM (inactive) | > 100 µM (inactive) | > 100 µM (inactive) | > 100 µM (inactive) | > 100 µM (inactive) | > 100 µM (inactive) | > 100 µM (inactive) | > 100 µM (inactive) | > 100 µM (inactive) | > 100 µM (inactive) | > 100 µM (inactive) | > 100 µM (inactive) | > 100 µM (inactive) | – |
| O=C(O)c1cc(O)c2c(c1)C([C@@H]1c3cccc(O)c3C(=O)c3c(O)cc(C(=O)O)cc31)c1cccc(O)c1C2=O (stereo partly specified) | 51.5 µM (inactive) | 17.6 µM (inactive) | 20.4 µM (inactive) | 24.9 µM (inactive) | 22.9 µM (inactive) | > 100 µM (inactive) | > 100 µM (inactive) | – | > 100 µM (inactive) | 25.4 µM (inactive) | 99.1 µM (inactive) | 23.5 µM (inactive) | 37.2 µM (inactive) | > 100 µM (inactive) | 32.9 µM (inactive) | 34.7 µM (inactive) | 24.6 µM (inactive) | 47.4 µM (inactive) | 25.3 µM (inactive) | 23.2 µM (inactive) |
| CN1CCC(OC(=O)Oc2ccccc2)(c2ccccc2)CC1 | > 100 µM (inactive) | 20 µM (inactive) | 13 µM (inactive) | 28.5 µM (inactive) | 21.1 µM (inactive) | 24.9 µM (inactive) | 47.1 µM (inactive) | 17.9 µM (inactive) | 13.5 µM (inactive) | 21.9 µM (inactive) | 19.1 µM (inactive) | 12.9 µM (inactive) | 45.8 µM (inactive) | 12.5 µM (inactive) | 15.5 µM (inactive) | 24 µM (inactive) | 17.3 µM (inactive) | 19.6 µM (inactive) | 24.4 µM (inactive) | – |
| C/C(=N\Nc1nc2ccccc2o1)c1cccc[n+]1[O-] | 21.7 µM (inactive) | 23.9 µM (inactive) | 4.84 µM (inactive) | > 100 µM (inactive) | 16.1 µM (inactive) | 22.5 µM (inactive) | 27.8 µM (inactive) | > 100 µM (inactive) | 9.18 µM (inactive) | 8.26 µM (inactive) | 3.52 µM (inactive) | 60.3 µM (inactive) | 11 µM (inactive) | 4.73 µM (inactive) | 12 µM (inactive) | 0.0877 µM (active) | 44 µM (inactive) | 0.0769 µM (active) | – | 2.53 µM (inactive) |
| CCc1n[nH]c(=O)n1-c1ccncc1 | > 100 µM (inactive) | > 100 µM (inactive) | > 100 µM (inactive) | > 100 µM (inactive) | > 100 µM (inactive) | – | > 100 µM (inactive) | – | > 100 µM (inactive) | > 100 µM (inactive) | > 100 µM (inactive) | > 100 µM (inactive) | > 100 µM (inactive) | > 100 µM (inactive) | > 100 µM (inactive) | > 100 µM (inactive) | > 100 µM (inactive) | > 100 µM (inactive) | > 100 µM (inactive) | > 100 µM (inactive) |
| Nc1cc(OCc2ccccc2)c(OCc2ccccc2)cc1C=O | 17.5 µM (inactive) | 24.7 µM (inactive) | 21.2 µM (inactive) | 42.4 µM (inactive) | 31.2 µM (inactive) | 52.5 µM (inactive) | 31.6 µM (inactive) | 28.2 µM (inactive) | 14.1 µM (inactive) | 28.4 µM (inactive) | 15.3 µM (inactive) | 44.2 µM (inactive) | 24.4 µM (inactive) | 24.7 µM (inactive) | 27 µM (inactive) | 31.4 µM (inactive) | 39.8 µM (inactive) | 8.57 µM (inactive) | 52.8 µM (inactive) | – |
| Cc1ccc(C(=O)/C=C2\Nc3ccccc3NC2=O)cc1 | 2.49 µM (inactive) | 10.4 µM (inactive) | 2.17 µM (inactive) | 2.21 µM (inactive) | 1.07 µM (active) | 2.19 µM (inactive) | 4.69 µM (inactive) | 4.11 µM (inactive) | 6.43 µM (inactive) | 8.13 µM (inactive) | 2.1 µM (inactive) | 2.78 µM (inactive) | 2.96 µM (inactive) | > 100 µM (inactive) | 11.1 µM (inactive) | 4.17 µM (inactive) | 10.9 µM (inactive) | 11.5 µM (inactive) | – | 3.28 µM (inactive) |
| Cc1cc(N2CCCC2)c([N+](=O)[O-])cc1[N+](=O)[O-] | > 100 µM (inactive) | > 100 µM (inactive) | > 100 µM (inactive) | 90.4 µM (inactive) | > 100 µM (inactive) | > 100 µM (inactive) | > 100 µM (inactive) | > 100 µM (inactive) | > 100 µM (inactive) | > 100 µM (inactive) | – | > 100 µM (inactive) | > 100 µM (inactive) | > 100 µM (inactive) | > 100 µM (inactive) | > 100 µM (inactive) | > 100 µM (inactive) | > 100 µM (inactive) | > 100 µM (inactive) | > 100 µM (inactive) |
| S=C1N(/N=C/c2c3ccccc3cc3ccccc23)C(=N\c2ccccc2)/C(=N/c2ccccc2)N1c1ccccc1 | > 100 µM (inactive) | > 100 µM (inactive) | > 100 µM (inactive) | > 100 µM (inactive) | > 100 µM (inactive) | > 100 µM (inactive) | > 100 µM (inactive) | > 100 µM (inactive) | > 100 µM (inactive) | > 100 µM (inactive) | > 100 µM (inactive) | > 100 µM (inactive) | > 100 µM (inactive) | > 100 µM (inactive) | > 100 µM (inactive) | > 100 µM (inactive) | > 100 µM (inactive) | > 100 µM (inactive) | – | > 100 µM (inactive) |
